Results published in US7223793B2, “Phenolic acid derivatives and composition for preventing or treating blood lipid level-related diseases comprising the same” (Bionutrigen Co., Ltd., priority 2001, dated 2007).
Marks after values point to notes of the source that are not given here.

How the values were obtained:
HMG-CoA reductase = target: T1, HMG-CoA reductase (Rattus norvegicus, UniProt P51639); test: HMG-CoA reductase activity in liver microsomes of treated rats (Experimental Example 6, Step 4); type: in vivo; set-up: HMG-CoA reductase: unit not given here; settings: for HMG-CoA reductase: activity in liver microsomes of rats fed 6 weeks, CoA-SH by absorbance at 412 nm, average; for Inhibition of HMG-CoA reductase activity: liver microsomes of rats fed 6 weeks, relative to control group
T1 construct: the supernatant was ultracentrifuged (100,000×g for 60 minutes) to obtain microsomal precipitates; from tissue; host or cells: liver microsomes of treated rats
T1 sequence (P51639 1-887): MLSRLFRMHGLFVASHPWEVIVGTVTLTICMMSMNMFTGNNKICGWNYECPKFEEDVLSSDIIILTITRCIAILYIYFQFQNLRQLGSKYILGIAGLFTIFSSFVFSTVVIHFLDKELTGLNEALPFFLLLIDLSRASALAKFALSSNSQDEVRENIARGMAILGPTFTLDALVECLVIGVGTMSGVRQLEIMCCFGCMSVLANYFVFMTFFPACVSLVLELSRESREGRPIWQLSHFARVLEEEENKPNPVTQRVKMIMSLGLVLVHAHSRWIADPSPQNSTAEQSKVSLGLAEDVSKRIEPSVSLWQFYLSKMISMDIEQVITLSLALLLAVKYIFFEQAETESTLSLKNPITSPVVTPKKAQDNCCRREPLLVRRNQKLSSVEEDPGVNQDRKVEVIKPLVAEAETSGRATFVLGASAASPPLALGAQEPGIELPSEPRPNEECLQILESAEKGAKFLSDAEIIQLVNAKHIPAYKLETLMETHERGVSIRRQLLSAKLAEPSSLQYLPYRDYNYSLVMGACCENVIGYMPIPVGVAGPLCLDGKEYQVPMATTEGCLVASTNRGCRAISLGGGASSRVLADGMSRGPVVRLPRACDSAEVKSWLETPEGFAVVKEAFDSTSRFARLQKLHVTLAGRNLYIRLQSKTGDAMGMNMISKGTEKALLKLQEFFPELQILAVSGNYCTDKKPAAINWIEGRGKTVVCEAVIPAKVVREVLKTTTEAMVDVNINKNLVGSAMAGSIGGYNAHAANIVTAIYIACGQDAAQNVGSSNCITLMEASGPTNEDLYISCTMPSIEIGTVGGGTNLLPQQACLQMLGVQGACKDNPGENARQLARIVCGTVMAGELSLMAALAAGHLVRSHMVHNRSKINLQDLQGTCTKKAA
Protocol: In order to measure the activity of HMG-CoA reductase, the method described by Hulcher et al. (J. Lipid Res., 14, 625-641 (1973)) was employed after some modification. In this method, the concentration of the coenzyme-A (CoA-SH), which is produced when HMG-CoA is reduced to a mevalonate salt by the action of HMG-CoA reductase, is determined by spectroscopy and the activity of HMG-CoA reductase is calculated therefrom.
3 g of liver tissue taken from each sacrificed rat of Step 2 was washed successively with 100 ml of a cold Saline (0.15M NaCl) and 100 ml of a cold buffer solution A (0.1M triethanolamine, HCl/0.2M EDTA/2 mM dithiothreitol). The cold buffer solution A was added to the liver tissue in an amount of 2 ml per 1 g of the liver tissue and the mixture was homogenized with a homogenizer. The homogenate was centrifuged (15,000×g for 15 minutes), and then, the supernatant was ultracentrifuged (100,000×g for 60 minutes) to obtain microsomal precipitates. The precipitates thus obtained were washed with 2 mL of a cold buffer solution A and ultracentrifuged (100,000×g for 60 minutes) to obtain precipitates. The precipitates thus obtained were washed with a 1 mL of cold buffer solution A and kept in a 1.5 mL tube at −70° C.
The reaction substrates used in the measurement of HMG-CoA reductase activity were as follows:
i) buffer solution B: 0.1M triethanolamine, HCl/0.02M EDTA (pH7.4),
ii) HMG-CoA solution: 150 mmoles/culture medium, and
iii) NADPH solution: 2 mmoles/culture medium.
The suspension (microsome) prepared in the above was mixed with the reaction substrate and the resulting mixture was placed in a centrifugation tube and reacted at 37° C. for 30 minutes. The reaction mixture was treated with 20 μl of 0.1M sodium arsenite and allowed to stand for 1 minute. Then, the mixture was reacted with 100 μl of citrate buffer solution (2M citrate/3% sodium tungstate, pH 3.5) at 37° C. for 10 minutes followed by centrifugation (25,000×g for 15 minutes) to remove protein. 1 mL of the supernatant thus obtained was transferred into a tube with a cap and 0.2 mL of 2M tris-HCl solution (pH 10.6) and 0.1 ml of 2M tris-HCl solution (pH 8.0) were added thereto to adjust the pH of the reaction to 8.0. Then, the reaction was mixed with 20 μl of DTNB buffer solution (3mM DTNB/0.1M triethanolamine/0.2M EDTA, pH 7.4) and the absorbance of the mixture was determined at 412 nm to calculate the amount of CoA-SH (activity of HMG-COA reductase). The inhibition of HMG-CoA reductase activity of the control and treated groups were calculated based on the above results.

[1] = test system: New Zealand White rabbits; test: Fatty streak in the main artery of cholesterol-fed rabbits (Experimental Example 7, Step 2); type: in vivo, rabbit; settings: 8 weeks; for Proportion of stained region (fatty streak region) per unit area of the artery: 1% cholesterol + RC4 diet, lovastatin 0.003 wt %, BN compounds 0.025 wt %, average ± standard deviation; for Proportion of the fatty streak region compared to the control group: 1% cholesterol diet
Protocol: The rabbits raised in Step 1 were sacrificed and their chests were incised. The incision was performed downward to the diaphragm along the aortic arch and the fat surrounding the main artery was removed. The main artery was incised in the middle along the longitudinal axis from the second aortic intercostal artery anastomoses to the seventh aortic intercostal artery anastomoses and fixed with 10% neutral buffered formalin for 24 hours. Then, the incised main artery was pinned to a dish for staining of fatty streaks according to the method of Esper, E., et al. {J. Lab. Clin. Med., 121, 103-110 (1993)}. The artery was washed with propylene glycol three times for 2 minutes respectively. The artery was stained for 30 minutes with a saturated solution of Oil Red O (ORO, Sigma Co.) dissolved in propylene glycol. Thereafter, the artery was washed with 85% propylene glycol twice for 3 minutes respectively to remove the remaining staining solution and, then the artery was washed with physiological saline once. The artery was photographed and the photograph was traced. The proportion (%) of stained region (fatty streak region) per unit area of the artery was determined with an image analyzer (LEICA, Q-600, Germany). The significant differences between the test groups were tested by student t-test using Microsoft excel (version 7.0) program

| HMG-CoA reductase (HMG-CoA reductase) | Structure (SMILES) | Inhibition of HMG-CoA reductase activity (HMG-CoA reductase) [%] | Proportion of stained region (fatty streak region) per unit area of the artery [1] | Proportion of the fatty streak region compared to the control group [1] |
| --- | --- | --- | --- | --- |
| 196.11 | COC(=O)C(CO)NC(=O)CCc1ccc(O)c(O)c1 (centres unmarked) [BN30063, 2-[3-(3,4-dihydroxyphenyl)propionylamino]-3-hydroxy propionic acid methyl ester] | 20.09 | 44.8 ± 10.5% | significantly lower |
| 124.74 | CC(C)CC(NC(=O)CCc1ccc(O)c(O)c1)C(=O)O (centres unmarked) [BN30064, 2-[3-(3,4-dihydroxyphenyl)propionylamino]-4-methyl pentanoic acid] |  | 31.2 ± 11.6^b % | significantly lower |
| 136.15 | O=C(O)CC(NC(=O)CCc1ccc(O)c(O)c1)C(=O)O (centres unmarked) [BN30067, 2-[3-(3,4-dihydroxyphenyl)propionylamino]-succinic acid] |  | 43.0 ± 13.9^b % | significantly lower |

| Structure (SMILES) | HMG-CoA reductase (HMG-CoA reductase) | Inhibition of HMG-CoA reductase activity (HMG-CoA reductase) [%] | Proportion of stained region (fatty streak region) per unit area of the artery [1] | Proportion of the fatty streak region compared to the control group [1] |
| --- | --- | --- | --- | --- |
| CC[C@H](C)C(=O)O[C@H]1C[C@@H](C)C=C2C=C[C@H](C)[C@H](CC[C@@H]3C[C@@H](O)CC(=O)O3)[C@H]21 [Lovastatin, reference compound] | 173.25 | 29.40 | 30.3 ± 12^b % | significantly lower |
